Results on three compounds are retold here after ChEMBL document CHEMBL5728685, “Macrocycle containing aminopyrazole and pyrimidine and pharmaceutical composition and use thereof” (2021).

The assay concerns the target High affinity nerve growth factor receptor (Homo sapiens, UniProt P04629). The assay is described as follows: Inhibition Assay: A testing platform for TrkAWT kinase activity was established based on Homogeneous Time-Resolved Fluorescence (HTRF) assay, and the activities of the compounds were tested using the platform. The compounds were subjected to five-fold gradient dilution for eight times with 100% DMSO with a starting concentration of 200 μM (9 concentrations in total). 4 μL of diluted sample for ….

High affinity nerve growth factor receptor, sequence (P04629 whole entry): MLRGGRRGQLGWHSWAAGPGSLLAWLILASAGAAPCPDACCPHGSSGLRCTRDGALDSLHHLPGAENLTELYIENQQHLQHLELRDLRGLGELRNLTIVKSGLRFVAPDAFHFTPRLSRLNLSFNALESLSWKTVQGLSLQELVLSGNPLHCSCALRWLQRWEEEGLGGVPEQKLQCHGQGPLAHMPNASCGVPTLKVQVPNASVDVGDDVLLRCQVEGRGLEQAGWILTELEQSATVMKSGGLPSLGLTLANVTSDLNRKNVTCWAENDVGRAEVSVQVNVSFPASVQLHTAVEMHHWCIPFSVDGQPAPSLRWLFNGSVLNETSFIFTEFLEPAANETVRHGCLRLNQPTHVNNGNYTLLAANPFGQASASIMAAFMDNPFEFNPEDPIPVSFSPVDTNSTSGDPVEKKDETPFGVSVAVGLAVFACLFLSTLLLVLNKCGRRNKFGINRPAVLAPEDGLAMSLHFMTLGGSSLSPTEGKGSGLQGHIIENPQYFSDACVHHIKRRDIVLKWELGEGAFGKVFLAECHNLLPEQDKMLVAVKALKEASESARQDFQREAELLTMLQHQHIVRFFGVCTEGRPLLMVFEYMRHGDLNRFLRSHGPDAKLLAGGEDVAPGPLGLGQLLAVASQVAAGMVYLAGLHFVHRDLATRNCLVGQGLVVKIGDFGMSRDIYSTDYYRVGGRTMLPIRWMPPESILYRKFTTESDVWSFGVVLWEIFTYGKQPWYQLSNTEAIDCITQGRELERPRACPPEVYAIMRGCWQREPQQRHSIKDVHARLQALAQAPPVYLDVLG

As for `C[C@@H]1CCc2ncc(F)cc2[C@H]2C[C@H](F)CN2c2ccn3nc(N)c(c3n2)C(=O)N1`, 0.23 nM corresponded to half-maximal inhibition (IC50). This counts as sub-nanomolar.
In the case of `Nc1nn2ccc3nc2c1C(=O)NCCCn1cc(F)cc(c1=O)[C@H]1C[C@H](F)CN31`, the half-inhibitory concentration (IC50) is 0.23 nM.
In the case of `Nc1nn2ccc3nc2c1C(=O)NCCOc1ncc(F)cc1C1CCCN31` (stereo not drawn) it was 0.8 nM.

As a reminder, the IC50 is the midpoint of a concentration-inhibition curve.
